# Patent US11780830B2, “Triazolone derivatives or salts thereof and pharmaceutical compositions comprising the same” (YUHAN CORPORATION, priority 2018, dated 2023)
# What was measured:
# Format in all cases: biochemical
# [1] = biological target: T1, recombinant human MAO-A (monoamine oxidase-A) (Homo sapiens, UniProt P21397); assay: Activity on recombinant human MAO-A, method similar to the VAP-1 assay; conditions: substrate 0.5 mM tyramine; read-out: Inhibitory Activity (IC50, nM) MAO-A
# T1 construct: purchased Sigma-Aldrich
# T1 sequence (P21397 1-527): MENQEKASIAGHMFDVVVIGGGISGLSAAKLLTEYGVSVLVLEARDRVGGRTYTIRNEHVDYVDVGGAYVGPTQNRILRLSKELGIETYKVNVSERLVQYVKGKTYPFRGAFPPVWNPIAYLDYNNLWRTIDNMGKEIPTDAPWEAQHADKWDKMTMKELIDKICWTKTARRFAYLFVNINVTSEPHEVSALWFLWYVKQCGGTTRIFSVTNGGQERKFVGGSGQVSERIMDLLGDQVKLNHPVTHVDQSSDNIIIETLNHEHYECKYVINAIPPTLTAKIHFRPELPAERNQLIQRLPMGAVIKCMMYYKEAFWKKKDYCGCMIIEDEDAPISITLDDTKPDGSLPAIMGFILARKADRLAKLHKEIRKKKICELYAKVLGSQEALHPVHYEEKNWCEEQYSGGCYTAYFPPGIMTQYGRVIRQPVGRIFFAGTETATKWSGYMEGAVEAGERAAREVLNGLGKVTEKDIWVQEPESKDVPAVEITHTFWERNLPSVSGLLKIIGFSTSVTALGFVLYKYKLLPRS
# Procedure, shortened: (§1)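 HRP-coupled Amplex Red H2O2 assay, 50 mM sodium phosphate pH 7.4; compounds (8-point 1:3 series, final DMSO <1%) preincubated with enzyme 30 min at 37° C, then 200 uM Amplex Red, 1 U/mL HRP and substrate (MAO-A 0.5 mM tyramine; MAO-B 1 mM benzylamine) added. Resorufin fluorescence (ex 544/em 590 nm) read over 1-2 h; IC50 from four-parameter logistic fit.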
# [2] = biological target: T2, recombinant human MAO-B (monoamine oxidase-B) (Homo sapiens, UniProt P27338); assay: Activity on recombinant human MAO-B, method similar to the VAP-1 assay; conditions: substrate 1 mM benzylamine; read-out: Inhibitory Activity (IC50, nM) MAO-B
# T2 construct: purchased Sigma-Aldrich
# T2 sequence (P27338 1-520): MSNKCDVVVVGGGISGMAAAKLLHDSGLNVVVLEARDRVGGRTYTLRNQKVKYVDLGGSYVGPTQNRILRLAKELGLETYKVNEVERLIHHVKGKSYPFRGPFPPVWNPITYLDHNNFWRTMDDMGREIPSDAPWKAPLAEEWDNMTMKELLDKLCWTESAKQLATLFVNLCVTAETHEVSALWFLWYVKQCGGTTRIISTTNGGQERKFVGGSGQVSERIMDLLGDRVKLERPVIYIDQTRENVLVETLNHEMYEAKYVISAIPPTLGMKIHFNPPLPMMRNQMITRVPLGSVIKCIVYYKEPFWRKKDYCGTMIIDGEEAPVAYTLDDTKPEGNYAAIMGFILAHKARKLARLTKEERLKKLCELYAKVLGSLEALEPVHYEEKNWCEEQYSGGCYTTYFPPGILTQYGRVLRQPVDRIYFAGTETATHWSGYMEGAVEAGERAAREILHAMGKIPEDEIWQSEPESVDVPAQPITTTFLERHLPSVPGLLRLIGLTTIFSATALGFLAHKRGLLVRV
# Procedure, shortened: as §1
# [3] = biological target: T3, recombinant human VAP-1 (Homo sapiens, UniProt Q16853); assay: Activity on recombinant human VAP-1, HRP-coupled Amplex Red hydrogen peroxide assay; conditions: substrate 1 mM benzylamine; compound incubated with enzyme at 37° C. for 30 minutes; pH 7.4; read-out: Inhibitory Activity (IC50, nM) human VAP-1
# T3 construct: purchased R&D systems
# T3 sequence (Q16853 1-763): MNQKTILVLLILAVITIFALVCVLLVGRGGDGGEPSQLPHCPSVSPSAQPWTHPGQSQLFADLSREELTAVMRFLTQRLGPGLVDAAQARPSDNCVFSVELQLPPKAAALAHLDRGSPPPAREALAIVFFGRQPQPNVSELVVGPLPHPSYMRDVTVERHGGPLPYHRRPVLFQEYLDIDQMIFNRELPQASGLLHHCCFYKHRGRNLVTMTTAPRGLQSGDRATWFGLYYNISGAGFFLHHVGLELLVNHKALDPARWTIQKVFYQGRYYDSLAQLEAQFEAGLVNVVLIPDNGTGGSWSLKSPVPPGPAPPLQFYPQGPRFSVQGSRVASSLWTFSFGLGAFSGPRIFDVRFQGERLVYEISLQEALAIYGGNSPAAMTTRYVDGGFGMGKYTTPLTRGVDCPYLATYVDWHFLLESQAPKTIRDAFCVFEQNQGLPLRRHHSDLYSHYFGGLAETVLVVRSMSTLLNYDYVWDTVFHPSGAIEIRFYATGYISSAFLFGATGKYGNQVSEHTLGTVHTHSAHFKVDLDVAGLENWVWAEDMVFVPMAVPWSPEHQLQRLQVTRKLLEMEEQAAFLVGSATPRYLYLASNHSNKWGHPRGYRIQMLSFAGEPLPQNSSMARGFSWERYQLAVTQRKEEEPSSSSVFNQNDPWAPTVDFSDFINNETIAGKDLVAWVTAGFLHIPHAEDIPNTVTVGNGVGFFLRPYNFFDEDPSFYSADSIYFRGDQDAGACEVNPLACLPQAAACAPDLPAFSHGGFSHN
# Procedure, shortened: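 8-point 1:3 dilutions, final DMSO <1%; 30 min enzyme preincubation, 37 °C, pH 7.4 phosphate. Start: 1 mM benzylamine + 200 uM Amplex Red + 1 U/mL HRP. Read ex544/em590 over 1-2 h; % rate decrease vs DMSO control, 4-parameter logistic IC50.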
# [4] = biological target: T4, recombinant human DAO (diamine oxidase) (Homo sapiens, UniProt P19801); assay: Activity on recombinant human DAO, method similar to the VAP-1 assay; conditions: substrate 1 mM putrescine; read-out: Inhibitory Activity (IC50, nM) DAO
# T4 construct: purchased R&D systems
# T4 sequence (P19801 20-751): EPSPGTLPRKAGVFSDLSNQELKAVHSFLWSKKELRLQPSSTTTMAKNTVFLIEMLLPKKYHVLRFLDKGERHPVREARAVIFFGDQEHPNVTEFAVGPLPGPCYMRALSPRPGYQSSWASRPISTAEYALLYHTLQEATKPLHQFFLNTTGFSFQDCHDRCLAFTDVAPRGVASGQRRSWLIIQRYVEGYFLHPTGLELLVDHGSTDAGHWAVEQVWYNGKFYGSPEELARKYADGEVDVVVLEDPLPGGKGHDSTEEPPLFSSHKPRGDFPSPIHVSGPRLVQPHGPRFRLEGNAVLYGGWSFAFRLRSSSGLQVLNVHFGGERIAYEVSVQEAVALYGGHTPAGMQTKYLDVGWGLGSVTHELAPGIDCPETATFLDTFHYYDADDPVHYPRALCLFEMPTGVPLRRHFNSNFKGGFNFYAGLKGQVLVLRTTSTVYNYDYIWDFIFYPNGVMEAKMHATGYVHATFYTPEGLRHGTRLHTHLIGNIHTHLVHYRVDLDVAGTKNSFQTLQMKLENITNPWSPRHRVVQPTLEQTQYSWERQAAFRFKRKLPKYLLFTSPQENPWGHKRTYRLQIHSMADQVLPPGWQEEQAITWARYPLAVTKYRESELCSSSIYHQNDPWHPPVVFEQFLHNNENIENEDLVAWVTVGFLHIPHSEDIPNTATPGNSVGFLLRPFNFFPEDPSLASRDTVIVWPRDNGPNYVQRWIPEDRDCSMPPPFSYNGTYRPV
# Procedure, shortened: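 Inhibition of recombinant human diamine oxidase (DAO, R&D systems) was assessed by the same approach as the VAP-1 assay, using 1 mM putrescine as substrate. Hydrogen peroxide formed was detected through an HRP-coupled Amplex Red reaction yielding fluorescent resorufin, read at 544 nm excitation and 590 nm emission. IC50 values came from four-parameter logistic fitting in GraphPad Prism.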
IC50 [1] [nM],IC50 [2] [nM],IC50 [3] [nM],IC50 [4] [nM],Structure (SMILES)
> 100000,5200,3,1500,"NC/C(=C\F)Cn1ncn(Cc2cc3cc(-c4ccc(N5CCNCC5)cc4)ccc3s2)c1=O [Example 213, 2-[(2E)-2-(aminomethyl)-3-fluoroprop-2-en-1-yl]-4-({5-[4-(piperazin-1-yl)phenyl]-1-benzothiophen-2-yl}methyl)-2,4-dihydro-3H-1,2,4-triazol-3-one]"
> 100000,2200,1.6,1400,"CCn1cc(-c2ccc3sc(Cn4cnn(C/C(=C/F)CN)c4=O)cc3c2)cn1 [Example 214, 2-[(2E)-2-(aminomethyl)-3-fluoroprop-2-en-1-yl]-4-{[5-(1-ethyl-1H-pyrazol-4-yl)-1-benzothiophen-2-yl]methyl}-2,4-dihydro-3H-1,2,4-triazol-3-one]"
> 100000,310,1.3,380,"NC/C(=C\F)Cn1ncn(CCc2ccc(-c3ccc4c(c3)OCO4)s2)c1=O [Example 215, 2-[(2E)-2-(aminomethyl)-3-fluoroprop-2-en-1-yl]-4-{2-[5-(1,3-benzodioxol-5-yl)thiophen-2-yl]ethyl}-2,4-dihydro-3H-1,2,4-triazol-3-one]"
> 100000,37000,0.5,68,"CS(=O)(=O)c1ccc(-c2ccc(CCn3cnn(C/C(=C/F)CN)c3=O)s2)cc1 [Example 216, 2-[(2E)-2-(aminomethyl)-3-fluoroprop-2-en-1-yl]-4-(2-{5-[4-(methylsulfonyl)phenyl]thiophen-2-yl}ethyl)-2,4-dihydro-3H-1,2,4-triazol-3-one]"
> 100000,6900,0.7,61,"NC/C(=C\F)Cn1ncn(CCc2ccc(-c3ccc(C(F)(F)F)nc3)s2)c1=O [Example 217, 2-[(2E)-2-(aminomethyl)-3-fluoroprop-2-en-1-yl]-4-(2-{5-[6-(trifluoromethyl)pyridin-3-yl]thiophen-2-yl}ethyl)-2,4-dihydro-3H-1,2,4-triazol-3-one]"
> 100000,76000,0.7,200,"Cc1cc(-c2ccc(CCn3cnn(C/C(=C/F)CN)c3=O)s2)cc2c1NC(=O)CC2 [Example 218, 6-[5-(2-{1-[(2E)-2-(aminomethyl)-3-fluoroprop-2-en-1-yl]-5-oxo-1,5-dihydro-4H-1,2,4-triazol-4-yl}ethyl)thiophen-2-yl]-8-methyl-3,4-dihydroquinolin-2(1H)-one]"
> 100000,38000,0.5,120,"CN1C(=O)CCc2cc(-c3ccc(CCn4cnn(C/C(=C/F)CN)c4=O)s3)ccc21 [Example 219, 6-[5-(2-{1-[(2E)-2-(aminomethyl)-3-fluoroprop-2-en-1-yl]-5-oxo-1,5-dihydro-4H-1,2,4-triazol-4-yl}ethyl)thiophen-2-yl]-1-methyl-3,4-dihydroquinolin-2(1H)-one]"
> 100000,25000,0.7,520,"CN(C)c1ccc(-c2ccc(CCn3cnn(C/C(=C/F)CN)c3=O)s2)cn1 [Example 220, 2-[(2E)-2-(aminomethyl)-3-fluoroprop-2-en-1-yl]-4-(2-{5-[6-(dimethylamino)pyridin-3-yl]thiophen-2-yl}ethyl)-2,4-dihydro-3H-1,2,4-triazol-3-one]"
> 100000,> 100000,1.8,1420,"NC/C(=C\F)Cn1ncn(CCc2ccc(-c3ccc(N4CCNCC4)cc3)s2)c1=O [Example 221, 2-[(2E)-2-(aminomethyl)-3-fluoroprop-2-en-1-yl]-4-(2-{5-[4-(piperazin-1-yl)phenyl]thiophen-2-yl}ethyl)-2,4-dihydro-3H-1,2,4-triazol-3-one]"
> 100000,38000,0.7,890,"CCn1cc(-c2ccc(CCn3cnn(C/C(=C/F)CN)c3=O)s2)cn1 [Example 222, 2-[(2E)-2-(aminomethyl)-3-fluoroprop-2-en-1-yl]-4-{2-[5-(1-ethyl-1H-pyrazol-4-yl)thiophen-2-yl]ethyl}-2,4-dihydro-3H-1,2,4-triazol-3-one]"
